For data set [1], the system named is B16. Put plainly: Downregulation of TYR protein expression in mouse B16 cells after 72 hrs by Western blot analysis. In kind it is functional, cell-based.
In data set [2] the test system is B16. Nature of the data set: Cytotoxicity against mouse B16 cells up to 150 uM by MTT assay relative to control. In kind it is cell-based.
Data set [3] deals with B16. Put plainly: Downregulation of MITF protein expression in mouse B16 cells after 72 hrs by Western blot analysis. In kind it is functional, cell-based.
In data set [4] the test system is HaCaT. Put plainly: Cytotoxicity against human HaCaT cells up to 150 uM by MTT assay relative to control. The class given is cell-based.
Data set [5] in a line: Antioxidant activity assessed as DPPH free radical scavenging activity at 80 uM after 30 mins relative to control. In kind it is functional.
The nature of data set [6]: Reducing power of the compound assessed as reducing Fe3+ power at 80 uM using K3Fe(CN)6 in pH 6.6 phosphate buffer relative to control.
Data set [7] deals with T1, Tyrosinase (Mus musculus) (UniProt P11344).
T1 sequence (whole entry): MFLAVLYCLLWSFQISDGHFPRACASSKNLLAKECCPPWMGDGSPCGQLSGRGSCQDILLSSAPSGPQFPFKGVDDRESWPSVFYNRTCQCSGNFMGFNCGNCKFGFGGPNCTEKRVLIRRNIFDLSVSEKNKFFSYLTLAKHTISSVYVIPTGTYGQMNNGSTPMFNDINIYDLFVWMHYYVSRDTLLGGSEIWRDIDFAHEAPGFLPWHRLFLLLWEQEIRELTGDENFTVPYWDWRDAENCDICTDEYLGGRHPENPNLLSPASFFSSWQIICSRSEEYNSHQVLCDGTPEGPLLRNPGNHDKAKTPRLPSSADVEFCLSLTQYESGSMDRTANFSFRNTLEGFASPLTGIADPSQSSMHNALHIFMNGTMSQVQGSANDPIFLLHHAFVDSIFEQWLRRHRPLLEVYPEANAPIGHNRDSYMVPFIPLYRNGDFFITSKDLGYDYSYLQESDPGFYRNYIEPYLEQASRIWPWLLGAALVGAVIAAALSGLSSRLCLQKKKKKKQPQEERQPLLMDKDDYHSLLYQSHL
Put plainly: Inhibition of TYR activity in mouse B16 cells 20 uM using L-dopa as substrate after 72 hrs relative to control. The class given is cell-based.

Data set [8] has as its target T1, Tyrosinase (Mus musculus). Put plainly: Inhibition of TYR activity in mouse B16 cells assessed as melanin levels post exfoliation at 20 uM after 72 hrs by spectrophotometric analysis relative to control. The class given is cell-based. The arrangement: scale not given: the % may be the effect or the level left.
The target of data set [9] is T1, Tyrosinase (Mus musculus). Put plainly: Inhibition of TYR activity in mouse B16 cells assessed as increase in whitening at 20 uM preincubated for 72 hrs followed L-dopa substrate addition and measured after 4 hrs by fluorescence microscopy. In kind it is cell-based.
The nature of data set [10]: Hemolytic activity against human erythrocytes assessed as amount of hemoglobin released from lysed cells up to 150 uM relative to control. To be noted: read-out: Activity. In kind it is ADME, cell-based, Erythrocyte.
Data set [11] addresses T1, Tyrosinase (Mus musculus). Nature of the data set: Inhibition of TYR activity in mouse B16 cells assessed as effect on pallet after exfoliation at 20 uM preincubated for 72 hrs followed L-dopa substrate addition and measured after 4 hrs by fluorescence microscopy. The class given is cell-based.
Data set [12] can be described thus: Antioxidant activity assessed as ABTS radical scavenging activity at 80 uM after 10 mins relative to control. The class given is functional.
Data set [13] concerns the target T1, Tyrosinase (Mus musculus). Nature of the data set: Inhibition of TYR activity in mouse B16 cells assessed as reduction in melanin levels at 20 uM after 24 hrs by spectrophotometric analysis relative to control. The class given is cell-based.
In data set [14] the target is T2, Tyrosinase (Agaricus bisporus) (UniProt O42713).
T2 sequence (whole entry): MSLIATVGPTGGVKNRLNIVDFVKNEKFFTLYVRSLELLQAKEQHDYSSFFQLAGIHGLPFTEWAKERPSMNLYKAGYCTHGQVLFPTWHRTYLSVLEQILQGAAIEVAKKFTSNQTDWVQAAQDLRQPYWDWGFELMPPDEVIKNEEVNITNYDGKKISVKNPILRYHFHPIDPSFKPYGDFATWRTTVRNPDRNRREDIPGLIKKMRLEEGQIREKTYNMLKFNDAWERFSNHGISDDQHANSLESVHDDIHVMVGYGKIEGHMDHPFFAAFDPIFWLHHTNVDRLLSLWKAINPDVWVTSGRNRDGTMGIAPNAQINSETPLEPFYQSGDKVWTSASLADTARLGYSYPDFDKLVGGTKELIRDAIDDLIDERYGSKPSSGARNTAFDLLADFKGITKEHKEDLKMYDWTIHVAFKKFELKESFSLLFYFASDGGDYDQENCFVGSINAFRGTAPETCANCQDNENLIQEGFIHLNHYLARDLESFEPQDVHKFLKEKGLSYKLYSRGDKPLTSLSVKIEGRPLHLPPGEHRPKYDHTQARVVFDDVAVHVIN
Nature of the data set: Potency index, ratio of IC50 for arbutin to IC50 for test compound for inhibition of mushroom tyrosinase using L-dopa as substrate assessed as reduction in dopachrome production after 20 mins by spectrophotometry.

Data set [15] deals with T3, Tyrosinase (Agaricus bisporus, UniProt O42713).
T3 sequence (O42713 whole entry): T2 sequence (whole entry)
Nature of the data set: Inhibition of mushroom tyrosinase using L-dopa as substrate assessed as reduction in dopachrome production after 20 mins by spectrophotometry.

In data set [16] the target is T2, Tyrosinase (Agaricus bisporus). Put plainly: Inhibition of mushroom tyrosinase using L-dopa as substrate assessed as reduction in L-dopa oxidation at IC50 by spectrophotometry.

pIC50: −log10 of the molar value. Active and inactive are the calls of the source. The rule behind the calls is not given here. Where a SMILES comes first, the peptide text is derived from it.

As to `OC[C@H]1O[C@@H](Oc2ccc(O)cc2)[C@H](O)[C@@H](O)[C@@H]1O` [ARBUTIN], the inhibition result in data set [1] and in data set [3] was “inactive” each time. In addition, the Activity in data set [2] is 29%; in data set [4], 31%; in data set [5], 22%; in data set [6], 0.12; in data set [8], 76.3%; in [12] it was 53%. In [7], this molecule gave an inhibition of 10.4%. In addition, in [9], the inhibition result is “Active”. The hemolysis in data set [10] turned out to be 27%. Moreover, in [11], the result was Active.

In the case of `CC(C)[C@H](NC(=O)[C@H](CO)NC(=O)[C@H](CCCNC(=N)N)NC(=O)[C@H](CS)NC(=O)[C@@H](NC(=O)[C@H](CCCNC(=N)N)NC(=O)[C@@H](N)Cc1ccccc1)[C@@H](C)O)C(=O)N[C@@H](CS)C(=O)O` (H-FRTCRSVC-OH), the inhibition entry in data set [1], in data set [3], in data set [13], in data set [9] and in data set [16] was “Active” in each case. Further, the Activity in data set [2] was 3%; in [4], 2%; in data set [5], 94%; in data set [6], 0.25; in [8], 63.5%; in [12], 84%. In [14], the Ratio IC50 was 10. In data set [7], this molecule displayed an inhibition of 16%. Moreover, the negative-log IC50 (pIC50) in data set [15] is 4.14. Moreover, the hemolysis in data set [10] was 3%. In addition, in data set [11], the outcome was Active.

The values above are taken from ChEMBL document CHEMBL4325834, “De Novo Molecular Design of a Novel Octapeptide That Inhibits In Vivo Melanogenesis and Has Great Transdermal Ability” (J Med Chem, 2018).
